# Experimental data taken from paper PMC12543283, “TastepepAI: An artificial intelligence platform for taste peptide de novo design” (PLOS Computational Biology, 2025).
# Ends that are not written are not given here.
# Legend:
# [1] = tested on: human embryonic kidney cells (HEK293T)
# Protocol: (§1) The cytotoxicity of 73 synthetic peptides was evaluated using four human cell lines: human pancreatic ductal epithelial cells (HPNE), human embryonic kidney cells (HEK293T), human umbilical vein endothelial cells (HUVEC), and human bronchial epithelial cells (BEAS-2B). When cell density reached 70% confluence, the complete culture medium was replaced with serum-free maintenance medium, and peptides were added at a final concentration of 100 μM for 36 h. Control groups received only serum-free maintenance medium without peptides. Cell proliferation was assessed using the CCK-8 assay kit (Solarbio, CA1210) according to the manufacturer’s instructions.
# [2] = tested on: human bronchial epithelial cells (BEAS-2B)
# [3] = tested on: human umbilical vein endothelial cells (HUVEC)
# Protocol: as §1
# [4] = tested on: human pancreatic ductal epithelial cells (HPNE)
# Protocol: as §1
# [5] = Electronic tongue analysis (Taste-Sensing System SA 402B); set-up: unit not given here; conditions: reference solution 30 mM KCl + 0.3 mM tartaric acid as baseline, first measurement excluded; for Umami: sensor AAE; for Umami / Bitter / Sweet: detection threshold 0, room temperature; for Umami / Bitter / Sour / Salty: four replicates; for Sour: detection threshold -13, room temperature; for Salty: detection threshold -6, room temperature; for Sweet: measured five times
# Protocol: Taste characteristics were analyzed using the electronic tongue system E-tongue (Taste-Sensing System SA 402B, Intelligent Sensor Technology Co. Ltd., Japan). The system was equipped with five specific sensor probes for detecting sourness (CA0), saltiness (CT0), bitterness (C00), sweetness (GL1), and umami (AAE). Samples were tested at concentrations of 0.1 mg/mL and 1.0 mg/mL. Prior to experiments, sensors were activated by immersion in a reference solution (30 mM KCl and 0.3 mM tartaric acid) for 24 h. A 30 min self-diagnostic procedure was performed before each measurement to ensure data accuracy. The reference solution served both as a cleaning solution and standard solution for taste signal calibration. According to the manufacturer’s instructions, using the reference solution as baseline, the detection thresholds were set at −13 for sourness, −6 for saltiness, and 0 for other taste modalities. Two cleaning solutions were employed for electrode maintenance: (1) 30% ethanol solution containing 100 mM HCl for negative charge reference electrodes, and (2) 30% ethanol solution containing 100 mM KCl and 10 mM KOH for positive charge reference electrodes. All taste measurements were performed at room temperature with four replicates, except for sweetness which was measured five times. The first measurement data were excluded from analysis.
Substance,"Average cell viability, HEK293T [1]","Cell viability, HEK293T, Data1 [1]","Cell viability, HEK293T, Data2 [1]","Cell viability, HEK293T, Data3 [1]","Average cell viability, BEAS-2B [2]","Cell viability, BEAS-2B, Data1 [2]","Cell viability, BEAS-2B, Data2 [2]","Cell viability, BEAS-2B, Data3 [2]","Average cell viability, HUVEC [3]","Cell viability, HUVEC, Data1 [3]","Cell viability, HUVEC, Data2 [3]","Cell viability, HUVEC, Data3 [3]","Average cell viability, HPNE [4]","Cell viability, HPNE, Data1 [4]","Cell viability, HPNE, Data2 [4]","Cell viability, HPNE, Data3 [4]",Umami ([5]; peptide 0.1 mg/mL),Umami ([5]; peptide 1 mg/mL),"Bitter ([5]; sensor C00, peptide 0.1 mg/mL)","Bitter ([5]; sensor C00, peptide 1 mg/mL)",also measured
AEDNSL [TaPep43],98.86,96.72,102.11,97.76,108.94,119.14,93.72,113.96,103.73,104.42,115.43,91.33,110.25,117.40,99.83,113.51,1.07,-5.11,7.83,4.00,"Sour ([5]; sensor CA0, peptide 0.1 mg/mL): -1.87; Sour ([5]; sensor CA0, peptide 1 mg/mL): 12.46; Salty ([5]; sensor CT0, peptide 0.1 mg/mL): -20.35; Salty ([5]; sensor CT0, peptide 1 mg/mL): 7.60; Sweet ([5]; sensor GL1, peptide 0.1 mg/mL): 5.59; Sweet ([5]; sensor GL1, peptide 1 mg/mL): -3.45"
AGDAW [TaPep30],110.47,112.62,114.23,104.57,116.78,115.45,115.55,119.34,102.13,114.08,97.39,94.92,103.96,100.43,106.72,104.73,1.69,-4.59,7.53,3.18,"Sour ([5]; sensor CA0, peptide 0.1 mg/mL): -3.43; Sour ([5]; sensor CA0, peptide 1 mg/mL): 12.02; Salty ([5]; sensor CT0, peptide 0.1 mg/mL): -20.28; Salty ([5]; sensor CT0, peptide 1 mg/mL): 11.18; Sweet ([5]; sensor GL1, peptide 0.1 mg/mL): 5.66; Sweet ([5]; sensor GL1, peptide 1 mg/mL): -6.46"
AKDEKEL [TaPep1],101.23,110.16,98.99,94.54,108.54,105.88,114.46,105.28,97.71,96.99,94.60,101.54,94.74,92.35,92.15,99.73,2.15,-3.64,10.96,3.53,"Sour ([5]; sensor CA0, peptide 0.1 mg/mL): -4.53; Sour ([5]; sensor CA0, peptide 1 mg/mL): 9.07; Salty ([5]; sensor CT0, peptide 0.1 mg/mL): -19.14; Salty ([5]; sensor CT0, peptide 1 mg/mL): 13.72; Sweet ([5]; sensor GL1, peptide 0.1 mg/mL): 6.22; Sweet ([5]; sensor GL1, peptide 1 mg/mL): -3.13"
ANGPE [TaPep69],99.97,100.13,102.30,97.48,106.78,116.65,94.82,108.87,102.58,91.72,108.65,107.37,101.93,107.52,97.94,100.33,1.23,-4.62,7.32,3.75,"Sour ([5]; sensor CA0, peptide 0.1 mg/mL): -2.38; Sour ([5]; sensor CA0, peptide 1 mg/mL): 11.54; Salty ([5]; sensor CT0, peptide 0.1 mg/mL): -19.29; Salty ([5]; sensor CT0, peptide 1 mg/mL): 9.06; Sweet ([5]; sensor GL1, peptide 0.1 mg/mL): 5.65; Sweet ([5]; sensor GL1, peptide 1 mg/mL): -4.24"
APEELDA [TaPep36],103.41,103.44,102.11,104.67,102.92,111.17,103.39,94.22,101.78,93.96,95.80,115.59,113.58,114.11,111.61,115.01,0.55,-6.54,7.85,3.11,"Sour ([5]; sensor CA0, peptide 0.1 mg/mL): -0.61; Sour ([5]; sensor CA0, peptide 1 mg/mL): 17.06; Salty ([5]; sensor CT0, peptide 0.1 mg/mL): -18.92; Salty ([5]; sensor CT0, peptide 1 mg/mL): 13.68; Sweet ([5]; sensor GL1, peptide 0.1 mg/mL): 5.62; Sweet ([5]; sensor GL1, peptide 1 mg/mL): -8.13"
AQDDLP [TaPep20],99.56,100.69,99.18,98.80,101.76,114.06,96.91,94.32,100.19,93.96,106.73,99.87,110.18,113.51,117.20,99.83,1.29,-4.77,7.24,3.35,"Sour ([5]; sensor CA0, peptide 0.1 mg/mL): -2.48; Sour ([5]; sensor CA0, peptide 1 mg/mL): 11.76; Salty ([5]; sensor CT0, peptide 0.1 mg/mL): -21.79; Salty ([5]; sensor CT0, peptide 1 mg/mL): 6.62; Sweet ([5]; sensor GL1, peptide 0.1 mg/mL): 5.13; Sweet ([5]; sensor GL1, peptide 1 mg/mL): -4.17"
AQKQE [TaPep53],96.06,101.55,93.50,93.12,99.50,92.92,110.37,95.21,99.25,90.21,95.96,111.60,100.53,111.51,101.33,88.75,2.86,-3.47,7.88,2.74,"Sour ([5]; sensor CA0, peptide 0.1 mg/mL): -6.36; Sour ([5]; sensor CA0, peptide 1 mg/mL): 8.92; Salty ([5]; sensor CT0, peptide 0.1 mg/mL): -19.95; Salty ([5]; sensor CT0, peptide 1 mg/mL): 13.59; Sweet ([5]; sensor GL1, peptide 0.1 mg/mL): 9.02; Sweet ([5]; sensor GL1, peptide 1 mg/mL): -4.92"
AQSSLS [TaPep40],100.57,103.15,101.26,97.29,101.16,116.45,94.02,93.02,101.30,102.66,110.88,90.37,106.99,100.53,109.02,111.41,2.37,-3.91,7.48,3.31,"Sour ([5]; sensor CA0, peptide 0.1 mg/mL): -5.48; Sour ([5]; sensor CA0, peptide 1 mg/mL): 10.99; Salty ([5]; sensor CT0, peptide 0.1 mg/mL): -19.59; Salty ([5]; sensor CT0, peptide 1 mg/mL): 10.09; Sweet ([5]; sensor GL1, peptide 0.1 mg/mL): 10.64; Sweet ([5]; sensor GL1, peptide 1 mg/mL): -5.29"
